Patent US8796256B2 (Janssen Pharmaceutica NV, priority 2010, dated 2014)
pEC50: −log10 of the molar value.

What follows are molecules tested against T1, ERR1 (also known as ERR-α or ERR-1) (Homo sapiens, UniProt P11474) (assay: TR-FRET assay (disruption of co-activator peptide binding to ERR1 LBD)). Conditions: 6 nM 6His-ERR1LBD, 6 nM GST-SRC-2 peptide; average of 3 independent experiments.
T1 sequence (P11474 193-421 limits assumed): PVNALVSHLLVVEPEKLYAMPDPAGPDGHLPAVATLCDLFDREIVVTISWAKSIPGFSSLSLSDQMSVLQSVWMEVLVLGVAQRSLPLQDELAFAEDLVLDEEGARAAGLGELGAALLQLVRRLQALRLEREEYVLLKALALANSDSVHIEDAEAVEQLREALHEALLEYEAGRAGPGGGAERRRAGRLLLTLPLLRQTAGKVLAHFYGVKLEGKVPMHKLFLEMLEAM
Assay type: biochemical
Method in brief: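 His-tagged ERR1 ligand-binding domain and GST-labelled SRC-2 peptide, each 6 nM, equilibrated at 25° C for 4-18 h in Tris pH 8/Hepes/KCl/DTT/delipidated BSA buffer. Compound-induced loss of co-activator binding read as Eu cryptate→XL665 energy transfer; values from hyperbolic curve fits averaged over 3 independent runs.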
Work on `CS(=O)(=O)NN1C(=O)S/C(=C\c2cc3cnn(Cc4ccc(Cl)cc4C(F)(F)F)c3cc2F)C1=O` [Compound 371, N-[(5Z)-5-({1-[4-Chloro-2-(trifluoromethyl)benzyl]-6-fluoro-1H-indazol-5-yl}methylidene)-2,4-dioxo-1,3-thiazolidin-3-yl]methanesulfonamide] yielded a pEC50 of 8.05.
In the case of `O=C(NN1C(=O)S/C(=C\c2ccc3c(cnn3Cc3ccc(C(F)(F)F)cc3C(F)(F)F)c2)C1=O)C1CC1` [Compound 372, N-[(5Z)-5-({1-[2,4-Bis(trifluoromethyl)benzyl]-1H-indazol-5-yl}methylidene)-2,4-dioxo-1,3-thiazolidin-3-yl]cyclopropanecarboxamide], the pEC50 was 7.96.
In the case of `O=C(NN1C(=O)S/C(=C\c2ccc3c(cnn3Cc3ccc(Cl)cc3C(F)(F)F)c2)C1=O)C1CC1` [Compound 373, N-[(5Z)-5-({1-[4-Chloro-2-(trifluoromethyl)benzyl]-1H-indazol-5-yl}methylidene)-2,4-dioxo-1,3-thiazolidin-3-yl]cyclopropanecarboxamide], the pEC50 was 8.15.
`O=C(CN1C(=O)S/C(=C\c2ccc3c(c2)c(Cl)nn3Cc2ccc(Cl)cc2C(F)(F)F)C1=O)NS(=O)(=O)N1CCCC1` [Compound 375, 2-[(5Z)-5-({3-Chloro-1-[4-chloro-2-(trifluoromethyl)benzyl]-1H-indazol-5-yl}methylidene)-2,4-dioxo-1,3-thiazolidin-3-yl]-N-(pyrrolidin-1-ylsulfonyl)acetamide] gave a pEC50 of 7.15.
With `O=C(O)/C=C/CN1C(=O)S/C(=C\c2ccc3c(cnn3Cc3ccc(Cl)cc3C(F)(F)F)c2)C1=O` [Compound 376, (2E)-4-[(5Z)-5-({1-[4-Chloro-2-(trifluoromethyl)benzyl]-1H-indazol-5-yl}methylidene)-2,4-dioxo-1,3-thiazolidin-3-yl]but-2-enoic acid] the pEC50 was 7.19.
In the case of `O=C(O)c1ccc(CN2C(=O)S/C(=C\c3ccc4c(cnn4Cc4ccc(Cl)cc4C(F)(F)F)c3)C2=O)cc1` [Compound 377, 4-{[(5Z)-5-({1-[4-Chloro-2-(trifluoromethyl)benzyl]-1H-indazol-5-yl}methylidene)-2,4-dioxo-1,3-thiazolidin-3-yl]methyl}benzoic acid], the pEC50 was 7.17.
`O=C(O)c1cccc(CN2C(=O)S/C(=C\c3ccc4c(cnn4Cc4ccc(Cl)cc4C(F)(F)F)c3)C2=O)c1` [Compound 378, 3-{[(5Z)-5-({1-[4-Chloro-2-(trifluoromethyl)benzyl]-1H-indazol-5-yl}methylidene)-2,4-dioxo-1,3-thiazolidin-3-yl]methyl}benzoic acid] gave a pEC50 of 7.18.
Molecule `O=C(O)c1ccccc1CN1C(=O)S/C(=C\c2ccc3c(cnn3Cc3ccc(Cl)cc3C(F)(F)F)c2)C1=O` [Compound 379, 2-{[(5Z)-5-({1-[4-Chloro-2-(trifluoromethyl)benzyl]-1H-indazol-5-yl}methylidene)-2,4-dioxo-1,3-thiazolidin-3-yl]methyl}benzoic acid] has a pEC50 of 7.68.
Molecule `O=C(O)c1ccc(CN2C(=O)S/C(=C\c3ccc4c(cnn4Cc4ccc(Cl)cc4C(F)(F)F)c3)C2=O)o1` [Compound 380, 5-{[(5Z)-5-({1-[4-Chloro-2-(trifluoromethyl)benzyl]-1H-indazol-5-yl}methylidene)-2,4-dioxo-1,3-thiazolidin-3-yl]methyl}furan-2-carboxylic acid] has a pEC50 of 7.82.
For `O=C1S/C(=C\c2ccc3c(cnn3Cc3ccc(Cl)cc3C(F)(F)F)c2)C(=O)N1[C@@H]1CCNC[C@H]1F` [Compound 381, (5Z)-5-({1-[4-Chloro-2-(trifluoromethyl)benzyl]-1H-indazol-5-yl}methylidene)-3-[(3R,4R)-3-fluoropiperidin-4-yl]-1,3-thiazolidine-2,4-dione], the pEC50 was 7.55.
For `O=C1S/C(=C\c2ccc3c(cnn3Cc3ccc(Cl)cc3C(F)(F)F)c2)C(=O)N1[C@H]1CCNC[C@@H]1F` [Compound 382, (5Z)-5-({1-[4-Chloro-2-(trifluoromethyl)benzyl]-1H-indazol-5-yl}methylidene)-3-[(3S,4S)-3-fluoropiperidin-4-yl]-1,3-thiazolidine-2,4-dione], the pEC50 was 7.96.
`O=C1S/C(=C\c2ccc3c(cnn3Cc3ccc(Cl)cc3C(F)(F)F)c2)C(=O)N1CCNS(=O)(=O)CCl` [Compound 385, 1-Chloro-N-{2-[(5Z)-5-({1-[4-chloro-2-(trifluoromethyl)benzyl]-1H-indazol-5-yl}methylidene)-2,4-dioxo-1,3-thiazolidin-3-yl]ethyl}methanesulfonamide] gave a pEC50 of 7.41.
With `CCN1CC[C@@H](N2C(=O)S/C(=C\c3ccc4c(cnn4Cc4ccc(Cl)cc4C(F)(F)F)c3)C2=O)[C@H](F)C1` [Compound 386, (5Z)-5-({1-[4-Chloro-2-(trifluoromethyl)benzyl]-1H-indazol-5-yl}methylidene)-3-[(3R,4R)-1-ethyl-3-fluoropiperidin-4-yl]-1,3-thiazolidine-2,4-dione] the pEC50 was 7.38.
`CC(C)N1CC[C@@H](N2C(=O)S/C(=C\c3ccc4c(cnn4Cc4ccc(Cl)cc4C(F)(F)F)c3)C2=O)[C@H](F)C1` [Compound 387, (5Z)-5-({1-[4-Chloro-2-(trifluoromethyl)benzyl]-1H-indazol-5-yl}methylidene)-3-[(3R,4R)-3-fluoro-1-(1-methylethyl)piperidin-4-yl]-1,3-thiazolidine-2,4-dione] showed a pEC50 of 6.91.
For `N#CCN1CC[C@@H](N2C(=O)S/C(=C\c3ccc4c(cnn4Cc4ccc(Cl)cc4C(F)(F)F)c3)C2=O)[C@H](F)C1` [Compound 388, {(3R,4R)-4-[(5Z)-5-({1-[4-Chloro-2-(trifluoromethyl)benzyl]-1H-indazol-5-yl}methylidene)-2,4-dioxo-1,3-thiazolidin-3-yl]-3-fluoropiperidin-1-yl}acetonitrile], the pEC50 was 7.47.
`CC(=O)NCCN1C(=O)S/C(=C\c2ccc3c(cnn3Cc3ccc(Cl)cc3C(F)(F)F)c2)C1=O` [Compound 389, N-{2-[(5Z)-5-({1-[4-Chloro-2-(trifluoromethyl)benzyl]-1H-indazol-5-yl}methylidene)-2,4-dioxo-1,3-thiazolidin-3-yl]ethyl}acetamide] was tested, and the pEC50 was 7.59.
Molecule `O=C1S/C(=C\c2ccc3c(cnn3Cc3ccc(Cl)cc3C(F)(F)F)c2)C(=O)N1CCNC(=O)C(F)(F)F` [Compound 390, N-{2-[(5Z)-5-({1-[4-Chloro-2-(trifluoromethyl)benzyl]-1H-indazol-5-yl}methylidene)-2,4-dioxo-1,3-thiazolidin-3-yl]ethyl}-2,2,2-trifluoroacetamide] has a pEC50 of 7.19.
`O=C1S/C(=C\c2ccc3c(cnn3Cc3ccc(Cl)cc3C(F)(F)F)c2)C(=O)N1CCNS(=O)(=O)c1ccccc1` [Compound 391, N-{2-[(5Z)-5-({1-[4-Chloro-2-(trifluoromethyl)benzyl]-1H-indazol-5-yl}methylidene)-2,4-dioxo-1,3-thiazolidin-3-yl]ethyl}benzenesulfonamide] showed a pEC50 of 6.67.
`O=C1S/C(=C\c2ccc3c(cnn3Cc3ccc(Cl)cc3C(F)(F)F)c2)C(=O)N1CCNS(=O)(=O)c1ccc(C(F)(F)F)cc1` [Compound 392, N-{2-[(5Z)-5-({1-[4-Chloro-2-(trifluoromethyl)benzyl]-1H-indazol-5-yl}methylidene)-2,4-dioxo-1,3-thiazolidin-3-yl]ethyl}-4-(trifluoromethyl) benzenesulfonamide] gave a pEC50 of 6.67.
Molecule `CS(=O)(=O)NCCN1C(=O)S/C(=C\c2ccc3c(cnn3Cc3ccc(Cl)cc3C(F)(F)F)c2)C1=O` [Compound 393, N-{2-[(5Z)-5-({1-[4-Chloro-2-(trifluoromethyl)benzyl]-1H-indazol-5-yl}methylidene)-2,4-dioxo-1,3-thiazolidin-3-yl]ethyl}methanesulfonamide] has a pEC50 of 7.49.
Work on `CN(CCN1C(=O)S/C(=C\c2ccc3c(cnn3Cc3ccc(Cl)cc3C(F)(F)F)c2)C1=O)C(=O)C(F)(F)F` [Compound 394, N-{2-[(5Z)-5-({1-[4-Chloro-2-(trifluoromethyl)benzyl]-1H-indazol-5-yl}methylidene)-2,4-dioxo-1,3-thiazolidin-3-yl]ethyl}-2,2,2-trifluoro-N-methylacetamide] yielded a pEC50 of 6.91.
In the case of `CN(CCN1C(=O)S/C(=C\c2ccc3c(cnn3Cc3ccc(Cl)cc3C(F)(F)F)c2)C1=O)S(=O)(=O)c1ccc(C(F)(F)F)cc1` [Compound 395, N-{2-[(5Z)-5-({1-[4-Chloro-2-(trifluoromethyl)benzyl]-1H-indazol-5-yl}methylidene)-2,4-dioxo-1,3-thiazolidin-3-yl]ethyl}-N-methyl-4-(trifluoromethyl) benzenesulfonamide], the pEC50 was 6.34.
For `CN(CCN1C(=O)S/C(=C\c2ccc3c(cnn3Cc3ccc(Cl)cc3C(F)(F)F)c2)C1=O)S(=O)(=O)N1CCCC1` [Compound 396, N-{2-[(5Z)-5-({1-[4-Chloro-2-(trifluoromethyl)benzyl]-1H-indazol-5-yl}methylidene)-2,4-dioxo-1,3-thiazolidin-3-yl]ethyl}-N-methylpyrrolidine-1-sulfonamide], the pEC50 was 6.95.
`CN(CCN1C(=O)S/C(=C\c2ccc3c(cnn3Cc3ccc(Cl)cc3C(F)(F)F)c2)C1=O)S(C)(=O)=O` [Compound 397, N-{2-[(5Z)-5-({1-[4-Chloro-2-(trifluoromethyl)benzyl]-1H-indazol-5-yl}methylidene)-2,4-dioxo-1,3-thiazolidin-3-yl]ethyl}-N-methylmethanesulfonamide] was tested, and the pEC50 was 7.64.
For `O=C1S/C(=C\c2ccc3c(cnn3Cc3ccc(Cl)cc3C(F)(F)F)c2)C(=O)N1CCNS(=O)(=O)N1CCOCC1` [Compound 398, N-{2-[(5Z)-5-({1-[4-Chloro-2-(trifluoromethyl)benzyl]-1H-indazol-5-yl}methylidene)-2,4-dioxo-1,3-thiazolidin-3-yl]ethyl}morpholine-4-sulfonamide], the pEC50 was 8.00.
